Results reported in US20260375151A1, “KETOREDUCTASE MUTANT AND USE THEREOF” (SOUTH CHINA UNIVERSITY OF TECHNOLOGY, priority 2023, published 2026).

Molecular target: T1, Novosphingobium aromaticivorans ketoreductase (NaKRED) mutant Y199A/N149L (parent SEQ ID NO. 2) (Novosphingobium aromaticivorans, UniProt A4XEP2, E216K/G141A/I221V/N149L/Y199A)
T1 construct: substrate 1a with NADH
T1 sequence (A4XEP2 1-259 E216K/G141A/I221V/N149L/Y199A): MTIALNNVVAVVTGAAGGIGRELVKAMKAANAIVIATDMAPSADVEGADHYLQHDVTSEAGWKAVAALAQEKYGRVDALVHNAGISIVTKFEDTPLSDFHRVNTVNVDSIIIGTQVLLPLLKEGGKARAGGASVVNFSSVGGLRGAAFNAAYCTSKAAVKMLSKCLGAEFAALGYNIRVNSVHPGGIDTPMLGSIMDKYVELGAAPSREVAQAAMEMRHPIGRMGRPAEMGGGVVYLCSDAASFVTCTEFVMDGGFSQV
Assay: Enzyme activity assay of purified Y199A/N149L mutant (change in absorbance at 340 nm, NADH)
Format: biochemical
Conditions: role: substrate; 0.5 mM substrate 1a; 1 mM NADH; 0.5 μM purified enzyme; 100 mM PBS pH 7.2
Protocol: The collected wet cells were resuspended in a reaction buffer in a ratio of 1 g wet cells to 15 mL of reaction buffer. The cells were lysed by ultrasonication in an ice bath using cycles of turn-on for 1 s and turn-off for 2 s for a total duration of 45 min. The lysate was centrifuged at 12,000 rpm and 4 °C for 15 min, and the supernatant was filtered through a 0.22 μm membrane for subsequent purification. The purification was performed by Ni-NTA affinity chromatography using a 5 mL of pre-packed column. The entire purification system was first equilibrated with an equilibration buffer, and the sample was loaded at a flow rate of 1 mL/min. Unbound impurity proteins were further removed with the equilibration buffer, and gradient elution was performed by using an elution buffer (500 mM NaCl, and 500 mM imidazole). A target protein was eluted at approximately 150 mM imidazole. The target protein was collected, and concentrated and desalted by using an ultrafiltration tube (50 kDa cutoff) to a final volume of 1 mL. A protein solution was aliquoted and stored at −80 °C for further use.
Therefore, the activity of the mutant was evaluated by monitoring the change in absorbance at 340 nm during the reaction. […] The change in absorbance was monitored over 5 min. […] A sample was prepared by filtration through a 0.22 μm membrane, and the formation of product was detected by HPLC.

CC(C)C(=O)CC[C@@H](C)[C@H]1CCC2C3C(CC[C@@]21C)[C@@]1(C)CC[C@@H](O)C[C@@H]1C[C@H]3O (stereo partly shown) [1a]
TON: 438 ± 2.9
